In general, inhibition refers to the share of the control response that was lost under treatment.

Holding throughout (assay): Glycosidase inhibition, Table 6 (Laboratory 1)
Holding throughout (format): biochemical

The target in test [1] is T1, amyloglucosidase (from A. niger) (Aspergillus niger, UniProt P69328).
T1 construct: purchased Sigma-Aldrich Co
From the text:
(§1) The enzymes α-D-glucosidase (from yeast), β-D-glucosidases (from almond and bovine liver), α-D-galactosidase (from coffee beans), β-D-galactosidase (from bovine liver), α-D-mannosidase (from Jack bean), β-D-mannosidase (from snail), α-L-rhamnosidase (from Penicillium decumbens), α-L-fucosidase (from bovine kidney), trehalase (from porcine kidney), β-D-glucuronidases (from E. coli and bovine liver), amyloglucosidase (from A. niger), para-nitrophenyl glycosides, and various disaccharides were purchased from Sigma-Aldrich Co. (St. Louis, MO, USA).
(§2) Brush border membranes were prepared from the rat small intestine according to the method of Kessler et al., and were assayed at pH 6.8 for rat intestinal maltase using maltose. For rat intestinal maltase, porcine kidney trehalase, and A. niger amyloglucosidase activities, the reaction mixture contained maltose (25 mM) and the appropriate amount of enzyme, and the incubations were performed for 10–30 min at 37 °C. The reaction was stopped by heating at 100 °C for 3 min. After centrifugation (600× g; 10 min), the resulting reaction mixture was added to the Glucose CII-test Wako (Wako Pure Chemical Ind., Osaka, Japan). The absorbance at 505 nm was measured to determine the amount of the released D-glucose. Other glycosidase activities were determined using an appropriate para-nitrophenyl glycoside as substrate at the optimum pH of each enzyme. The reaction mixture contained the substrate (2 mM) and the appropriate amount of enzyme. The reaction was stopped by the addition of Na2CO3 (400 mM). The released para-nitrophenol was measured spectrometrically at 400 nm. All reactions run in methanol.

Test [2] deals with T2, α,α-trehalase (porcine kidney) (Sus scrofa, UniProt I3LIR5).
T2 construct: purchased Sigma-Aldrich Co
T2 sequence (I3LIR5 24-583): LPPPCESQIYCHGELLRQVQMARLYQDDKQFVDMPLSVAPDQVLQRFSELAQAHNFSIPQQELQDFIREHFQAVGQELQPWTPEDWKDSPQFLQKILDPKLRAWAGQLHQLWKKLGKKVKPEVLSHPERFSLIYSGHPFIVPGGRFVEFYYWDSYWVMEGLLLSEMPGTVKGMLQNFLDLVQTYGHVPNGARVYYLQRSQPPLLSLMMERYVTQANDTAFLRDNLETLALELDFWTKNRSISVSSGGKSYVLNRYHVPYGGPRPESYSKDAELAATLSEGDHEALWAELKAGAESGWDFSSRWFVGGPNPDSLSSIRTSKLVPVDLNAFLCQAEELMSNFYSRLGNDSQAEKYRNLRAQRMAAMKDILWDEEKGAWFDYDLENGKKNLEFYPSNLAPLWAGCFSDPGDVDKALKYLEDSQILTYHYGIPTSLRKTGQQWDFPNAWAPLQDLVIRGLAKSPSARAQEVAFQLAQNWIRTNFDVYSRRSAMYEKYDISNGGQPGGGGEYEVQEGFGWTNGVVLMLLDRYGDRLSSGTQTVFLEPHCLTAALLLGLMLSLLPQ
From the text: as §1, §2

Test [3] deals with α-D-glucosidase (rat intestinal maltase).
From the text: as §1, §2

Test [4] concerns the target T3, α-D-mannosidase (from Jack bean) (Canavalia ensiformis, UniProt C0HJB3).
T3 construct: purchased Sigma-Aldrich Co
T3 sequence (C0HJB3 1-981): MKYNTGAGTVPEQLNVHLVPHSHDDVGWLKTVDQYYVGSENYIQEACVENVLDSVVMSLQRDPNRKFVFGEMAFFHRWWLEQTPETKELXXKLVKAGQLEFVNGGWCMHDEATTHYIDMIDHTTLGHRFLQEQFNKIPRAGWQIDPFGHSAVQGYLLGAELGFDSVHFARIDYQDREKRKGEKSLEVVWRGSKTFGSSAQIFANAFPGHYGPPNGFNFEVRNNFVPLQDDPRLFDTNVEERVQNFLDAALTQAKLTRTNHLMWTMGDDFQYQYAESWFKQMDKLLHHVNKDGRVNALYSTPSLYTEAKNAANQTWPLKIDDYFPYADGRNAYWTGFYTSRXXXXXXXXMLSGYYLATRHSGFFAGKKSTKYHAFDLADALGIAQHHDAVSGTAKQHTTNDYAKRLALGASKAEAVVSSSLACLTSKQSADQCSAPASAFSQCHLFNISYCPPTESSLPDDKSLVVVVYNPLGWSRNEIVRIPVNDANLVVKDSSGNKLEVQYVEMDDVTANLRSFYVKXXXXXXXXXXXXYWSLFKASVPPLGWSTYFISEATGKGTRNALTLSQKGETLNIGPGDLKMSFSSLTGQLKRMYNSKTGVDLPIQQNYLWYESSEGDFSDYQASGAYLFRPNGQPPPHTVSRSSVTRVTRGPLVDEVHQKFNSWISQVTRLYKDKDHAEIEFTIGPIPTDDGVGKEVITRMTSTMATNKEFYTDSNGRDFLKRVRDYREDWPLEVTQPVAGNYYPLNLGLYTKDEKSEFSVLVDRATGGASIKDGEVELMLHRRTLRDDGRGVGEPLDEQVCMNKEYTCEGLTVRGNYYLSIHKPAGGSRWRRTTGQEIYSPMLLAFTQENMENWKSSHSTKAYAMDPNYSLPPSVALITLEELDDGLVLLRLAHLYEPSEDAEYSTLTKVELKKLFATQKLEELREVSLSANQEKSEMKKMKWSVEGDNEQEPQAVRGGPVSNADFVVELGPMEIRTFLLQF
From the text: as §1, §2

Test [5] addresses T4, β-D-glucuronidase (E. coli) (Escherichia coli, UniProt P05804).
T4 construct: purchased Sigma-Aldrich Co
From the text: as §1, §2

Test [6] has as its target T5, β-D-galactosidase (bovine liver) (Bos taurus, UniProt Q58D55).
T5 sequence (Q58D55 28-653): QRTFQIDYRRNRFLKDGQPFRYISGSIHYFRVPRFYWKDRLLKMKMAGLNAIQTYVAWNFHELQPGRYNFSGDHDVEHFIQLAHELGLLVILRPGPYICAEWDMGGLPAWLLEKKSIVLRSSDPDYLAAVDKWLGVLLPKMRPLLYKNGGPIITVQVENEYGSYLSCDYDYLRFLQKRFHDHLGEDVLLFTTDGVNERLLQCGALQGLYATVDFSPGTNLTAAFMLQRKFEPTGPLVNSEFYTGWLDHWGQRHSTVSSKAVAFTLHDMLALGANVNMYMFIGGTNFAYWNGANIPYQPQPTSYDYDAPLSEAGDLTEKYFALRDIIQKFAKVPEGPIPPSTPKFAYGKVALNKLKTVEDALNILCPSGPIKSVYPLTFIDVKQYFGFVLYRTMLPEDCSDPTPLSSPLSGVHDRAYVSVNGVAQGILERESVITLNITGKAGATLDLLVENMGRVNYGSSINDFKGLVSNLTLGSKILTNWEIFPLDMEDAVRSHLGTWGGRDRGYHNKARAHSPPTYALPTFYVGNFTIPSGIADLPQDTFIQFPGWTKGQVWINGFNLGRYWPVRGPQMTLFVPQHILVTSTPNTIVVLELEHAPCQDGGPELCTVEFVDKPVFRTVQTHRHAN
From the text: as §1, §2

T1 sequence (P69328 25-640): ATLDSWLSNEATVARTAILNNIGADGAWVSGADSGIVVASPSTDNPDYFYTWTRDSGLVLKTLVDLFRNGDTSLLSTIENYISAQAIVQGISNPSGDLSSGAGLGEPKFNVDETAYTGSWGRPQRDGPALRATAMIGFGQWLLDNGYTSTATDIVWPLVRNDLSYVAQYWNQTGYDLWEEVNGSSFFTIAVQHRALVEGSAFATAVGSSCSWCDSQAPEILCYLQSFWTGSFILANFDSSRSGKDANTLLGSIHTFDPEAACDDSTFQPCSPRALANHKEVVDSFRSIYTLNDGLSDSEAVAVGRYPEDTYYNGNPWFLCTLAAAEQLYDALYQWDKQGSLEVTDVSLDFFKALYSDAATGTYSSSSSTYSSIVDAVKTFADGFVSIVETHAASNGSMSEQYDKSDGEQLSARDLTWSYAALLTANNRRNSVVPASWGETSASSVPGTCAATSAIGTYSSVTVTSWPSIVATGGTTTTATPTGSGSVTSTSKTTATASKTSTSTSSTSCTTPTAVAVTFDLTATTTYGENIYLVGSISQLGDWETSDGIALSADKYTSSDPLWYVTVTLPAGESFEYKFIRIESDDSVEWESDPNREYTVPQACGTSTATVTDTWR
T4 sequence (P05804 whole entry): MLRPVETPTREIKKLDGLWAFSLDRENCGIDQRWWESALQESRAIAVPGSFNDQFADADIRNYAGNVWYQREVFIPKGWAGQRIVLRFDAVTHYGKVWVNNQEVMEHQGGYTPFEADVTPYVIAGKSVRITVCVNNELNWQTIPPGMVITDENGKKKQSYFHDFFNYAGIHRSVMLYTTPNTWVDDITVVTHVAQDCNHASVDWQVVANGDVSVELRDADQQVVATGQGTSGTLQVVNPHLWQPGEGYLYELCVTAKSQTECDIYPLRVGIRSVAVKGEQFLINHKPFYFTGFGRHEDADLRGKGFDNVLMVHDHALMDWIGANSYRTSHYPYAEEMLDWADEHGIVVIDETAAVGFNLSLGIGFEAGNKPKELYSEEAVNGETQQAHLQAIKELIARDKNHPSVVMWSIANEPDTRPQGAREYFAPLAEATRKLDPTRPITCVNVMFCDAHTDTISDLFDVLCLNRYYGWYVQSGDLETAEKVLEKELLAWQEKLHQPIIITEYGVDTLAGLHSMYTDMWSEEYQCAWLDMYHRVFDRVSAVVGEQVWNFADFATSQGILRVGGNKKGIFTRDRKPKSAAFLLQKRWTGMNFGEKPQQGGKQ

Consider `OC[C@H](O)[C@@H]1[C@H](O)[C@H](O)CN1Cc1ccc(B(O)O)cc1` [para 8, N-(4-Methylphenylboronic acid)-1,4-dideoxy-1,4-imino-L-gulitol], for which the inhibition at 1000 µM turned out to be 3.6% in test [1], 0% in test [2], 0% in test [4] and 22.9% in test [5]. Further, the “α-D-Glucosidase Rat Intestinal Maltase, inhibition % at 1000 μM” value in test [3] is recorded as “^a NI ^b (10.5%)”.

Take `OB(O)c1ccc(CN2CC(O)C3OC(O)C(O)C32)cc1` [para 7, N-(4-Methylphenylboronic acid)-3,6-dideoxy-3,6-imino-D-gulofuranose]: the inhibition at 1000 µM turned out to be 2.7% in test [1], 0% in test [2], 0% in test [4] and 17.8% in test [5]. The “α-D-Glucosidase Rat Intestinal Maltase, inhibition % at 1000 μM” value in test [3] is given as “^a NI ^b (0%)”.

Consider `OC1O[C@@H]2[C@H]([C@H]1O)N(Cc1ccccc1)C[C@H]2O` (stereo partly drawn) [Compound 4, N-Benzyl-3,6-dideoxy-3,6-imino-D-gulofuranose], for which the inhibition at 1000 µM is 0.2% in test [1], 0% in test [2], 7.5% in test [4] and 7% in test [5]. Moreover, the “α-D-Glucosidase Rat Intestinal Maltase, inhibition % at 1000 μM” value in test [3] is given as “^a NI ^b (22.4%)”.

Turning to `CC1(C)O[C@H]2O[C@H]3[C@@H]([C@H]2O1)N(Cc1ccc(B2OC(C)(C)C(C)(C)O2)cc1)C[C@H]3O` [para 6, N-(4-Methylphenylboronic acid pinacol ester)-3,6-dideoxy-3,6-imino-1,2-O-isopropylidene-α-D-gulofuranose], the inhibition at 100 µM in test [1] was 0%; in test [2], 0%; in test [4] it was 0%; in test [6], 22.3%; in test [5], 3.2%. Besides, the “α-D-Glucosidase Rat Intestinal Maltase, inhibition % at 100 μM” value in test [3] is on record as “^c NI ^d (0%)”.

As to “borocaptate sodium [BSH, reference compound]”, the “Amyloglucosidase A. niger, inhibition % at 1000 μM” value in test [1] (1000 μM) was “^a NI ^b (0%)”. For the same compound, the “α,α-Trehalase Porcine Kidney, inhibition % at 1000 μM” value in test [2] (1000 μM) was “^a NI ^b (4.2%)”. The “α-D-Glucosidase Rat Intestinal Maltase, inhibition % at 1000 μM” value in test [3] is on record as “^a NI ^b (0%)”. Besides, the “α-D-Mannosidase Jack Bean, inhibition % at 1000 μM” value in test [4] (1000 μM) is “^a NI ^b (7.9%)”. In test [6] (1000 μM), the “β-D-Galactosidase Bovine Liver, inhibition % at 1000 μM” value was “^a NI ^b (0%)”. The “β-D-Glucuronidase E. coli, inhibition % at 1000 μM” value in test [5] (1000 μM) is on record as “^a NI ^b (6%)”.

On to `N[C@@H](Cc1ccc(B(O)O)cc1)C(=O)O` [^10B-BPA, reference compound], for which the “Amyloglucosidase A. niger, inhibition % at 100 μM” value in test [1] (100 μM) was “^c NI ^d (0%)”. Also, the “α,α-Trehalase Porcine Kidney, inhibition % at 100 μM” value in test [2] (100 μM) is “^c NI ^d (0%)”. The “α-D-Glucosidase Rat Intestinal Maltase, inhibition % at 100 μM” value in test [3] is “^c NI ^d (0%)”. For the same compound, the “α-D-Mannosidase Jack Bean, inhibition % at 100 μM” value in test [4] (100 μM) is “^c NI ^d (0%)”. Further, the “β-D-Galactosidase Bovine Liver, inhibition % at 100 μM” value in test [6] (100 μM) is “^c NI ^d (0%)”. Further, the “β-D-Glucuronidase E. coli, inhibition % at 100 μM” value in test [5] (100 μM) was “^c NI ^d (2.4%)”.

Turning to `CC1(C)O[C@H]2O[C@H]3[C@@H]([C@H]2O1)N(Cc1ccccc1)C[C@H]3O` [Compound 3, N-Benzyl-3,6-dideoxy-3,6-imino-1,2-O-isopropylidene-α-D-gulofuranose], the inhibition at 100 µM in test [1] came to 0%; in test [2] it was 0%; in test [4] it was 0.9%; in test [6], 26.1%; in test [5] it was 2.4%. For the same compound, in test [3], the “α-D-Glucosidase Rat Intestinal Maltase, inhibition % at 100 μM” value is given as “^c NI ^d (0%)”.

Consider `OC[C@H](O)[C@@H]1[C@H](O)[C@H](O)CN1Cc1ccccc1` [Compound 5, N-Benzyl-1,4-dideoxy-1,4-imino-L-gulitol], for which the inhibition at 100 µM was found to be 2.1% in test [1]; 0% in test [2]; 4.4% in test [4]; 0% in test [6]; 0% in test [5]. Also, in test [3], the “α-D-Glucosidase Rat Intestinal Maltase, inhibition % at 100 μM” value is “^c NI ^d (12.9%)”.

Take `N[C@@H](Cc1ccc(B(O)O)cc1)C(=O)O` [BPA, 4-borono-L-phenylalanine, reference compound]: the “α-D-Glucosidase Rat Intestinal Maltase, inhibition % at 100 μM” value in test [3] was “^c NI ^d (0%)”. In test [6], this compound returned an inhibition at 100 µM of 10.9%.

These data come from paper PMC12472391, “Borylated Five-Membered Ring Iminosugars: Synthesis, Spectroscopic Analysis, and Biological Evaluation for Glycosidase Inhibition and Anticancer Properties for Application in Boron Neutron Capture Therapy (BNCT)—Part 1” (Pharmaceuticals, 2025).
